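Briefly, cells in 96-well plates were exposed to five compound concentrations for 48 h, and endpoints were estimated by linear interpolation. At the TGI there is no net growth.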
These compounds were tested on M14 melanoma (assay: DTP human tumour cell line panel, 48 h).

| Structure (SMILES) | TGI [µM] |
| --- | --- |
| COC(CNC(=O)C(C)NC(=O)CCc1ccccc1)OC (configuration not stated) | > 100 |
| COc1ccc(C(=C(Cl)c2ccccc2)c2ccc(OC)cc2)cc1 | > 100 |
| O=C(NCCCNCCCNC(=O)c1cc(-c2ccccc2)nc2ccccc12)c1cc(-c2ccccc2)nc2ccccc12 | 3.19 |
| NC(Cc1ccccc1)C(=O)N[C@H]1c2ccsc2/C(=N/O)[C@H]1O (some centres not stated) | > 100 |

These compounds were tested on MALME-3M melanoma (assay: DTP human tumour cell line panel, 48 h).

| Structure (SMILES) | TGI [µM] |
| --- | --- |
| CC(C)(C)c1cc(Br)c(O)c(CN(Cc2cc(C(C)(C)C)cc(Br)c2O)C2CCCCC2)c1 | 24.1 |
| O=Cc1ccc(OCc2cccc(COc3ccc(/C=N\Nc4ccc([N+](=O)[O-])cc4[N+](=O)[O-])cc3)n2)cc1 | > 100 |
| O=C(N/N=C/c1ccccc1)c1c(-c2cccnc2)cnc2ccccc12 | > 100 |
| Cc1ccc(SCC(CF)OC(C)n2cnc3c(=O)[nH]c(N)nc32)cc1 (configuration not stated) | > 100 |
| COC(CNC(=O)C(C)NC(=O)CCc1ccccc1)OC (configuration not stated) | > 100 |
| COc1ccc(C(=C(Cl)c2ccccc2)c2ccc(OC)cc2)cc1 | > 100 |
| O=C(NCCCNCCCNC(=O)c1cc(-c2ccccc2)nc2ccccc12)c1cc(-c2ccccc2)nc2ccccc12 | 3.5 |
| NC(Cc1ccccc1)C(=O)N[C@H]1c2ccsc2/C(=N/O)[C@H]1O (some centres not stated) | > 100 |

Each compound was assayed on MCF7 breast (assay: DTP human tumour cell line panel, 48 h).

| Structure (SMILES) | TGI [µM] |
| --- | --- |
| CC(C)(C)c1cc(Br)c(O)c(CN(Cc2cc(C(C)(C)C)cc(Br)c2O)C2CCCCC2)c1 | 26.8 |
| O=Cc1ccc(OCc2cccc(COc3ccc(/C=N\Nc4ccc([N+](=O)[O-])cc4[N+](=O)[O-])cc3)n2)cc1 | > 100 |
| O=C(N/N=C/c1ccccc1)c1c(-c2cccnc2)cnc2ccccc12 | > 100 |
| Cc1ccc(SCC(CF)OC(C)n2cnc3c(=O)[nH]c(N)nc32)cc1 (configuration not stated) | > 100 |
| COC(CNC(=O)C(C)NC(=O)CCc1ccccc1)OC (configuration not stated) | > 100 |
| COc1ccc(C(=C(Cl)c2ccccc2)c2ccc(OC)cc2)cc1 | > 100 |
| NC(Cc1ccccc1)C(=O)N[C@H]1c2ccsc2/C(=N/O)[C@H]1O (some centres not stated) | > 100 |

These compounds were tested on MDA-MB-231 breast (assay: DTP human tumour cell line panel, 48 h).

| Structure (SMILES) | TGI [µM] |
| --- | --- |
| CC(C)(C)c1cc(Br)c(O)c(CN(Cc2cc(C(C)(C)C)cc(Br)c2O)C2CCCCC2)c1 | 28.2 |
| O=Cc1ccc(OCc2cccc(COc3ccc(/C=N\Nc4ccc([N+](=O)[O-])cc4[N+](=O)[O-])cc3)n2)cc1 | > 100 |
| Cc1ccc(SCC(CF)OC(C)n2cnc3c(=O)[nH]c(N)nc32)cc1 (configuration not stated) | > 100 |
| COC(CNC(=O)C(C)NC(=O)CCc1ccccc1)OC (configuration not stated) | > 100 |
| COc1ccc(C(=C(Cl)c2ccccc2)c2ccc(OC)cc2)cc1 | > 100 |
| O=C(NCCCNCCCNC(=O)c1cc(-c2ccccc2)nc2ccccc12)c1cc(-c2ccccc2)nc2ccccc12 | 3.14 |
| NC(Cc1ccccc1)C(=O)N[C@H]1c2ccsc2/C(=N/O)[C@H]1O (some centres not stated) | > 100 |

Each compound was assayed on MDA-MB-435 (assay: DTP human tumour cell line panel, 48 h).

| Structure (SMILES) | TGI [µM] |
| --- | --- |
| CC(C)(C)c1cc(Br)c(O)c(CN(Cc2cc(C(C)(C)C)cc(Br)c2O)C2CCCCC2)c1 | 27.4 |
| O=Cc1ccc(OCc2cccc(COc3ccc(/C=N\Nc4ccc([N+](=O)[O-])cc4[N+](=O)[O-])cc3)n2)cc1 | > 100 |
| Cc1ccc(SCC(CF)OC(C)n2cnc3c(=O)[nH]c(N)nc32)cc1 (configuration not stated) | > 100 |
| COC(CNC(=O)C(C)NC(=O)CCc1ccccc1)OC (configuration not stated) | > 100 |
| COc1ccc(C(=C(Cl)c2ccccc2)c2ccc(OC)cc2)cc1 | > 100 |
| NC(Cc1ccccc1)C(=O)N[C@H]1c2ccsc2/C(=N/O)[C@H]1O (some centres not stated) | > 100 |

These compounds were tested on MDA-N (assay: DTP human tumour cell line panel, 48 h).

| Structure (SMILES) | TGI [µM] |
| --- | --- |
| CC(C)(C)c1cc(Br)c(O)c(CN(Cc2cc(C(C)(C)C)cc(Br)c2O)C2CCCCC2)c1 | 27.6 |
| O=Cc1ccc(OCc2cccc(COc3ccc(/C=N\Nc4ccc([N+](=O)[O-])cc4[N+](=O)[O-])cc3)n2)cc1 | > 100 |
| O=C(N/N=C/c1ccccc1)c1c(-c2cccnc2)cnc2ccccc12 | > 100 |
| Cc1ccc(SCC(CF)OC(C)n2cnc3c(=O)[nH]c(N)nc32)cc1 (configuration not stated) | > 100 |
| COC(CNC(=O)C(C)NC(=O)CCc1ccccc1)OC (configuration not stated) | > 100 |
| COc1ccc(C(=C(Cl)c2ccccc2)c2ccc(OC)cc2)cc1 | > 100 |
| O=C(NCCCNCCCNC(=O)c1cc(-c2ccccc2)nc2ccccc12)c1cc(-c2ccccc2)nc2ccccc12 | 3.13 |
| NC(Cc1ccccc1)C(=O)N[C@H]1c2ccsc2/C(=N/O)[C@H]1O (some centres not stated) | > 100 |

What follows are compounds tested on MOLT-4 leukemia (assay: DTP human tumour cell line panel, 48 h).

| Structure (SMILES) | TGI [µM] |
| --- | --- |
| CC(C)(C)c1cc(Br)c(O)c(CN(Cc2cc(C(C)(C)C)cc(Br)c2O)C2CCCCC2)c1 | 26 |
| O=Cc1ccc(OCc2cccc(COc3ccc(/C=N\Nc4ccc([N+](=O)[O-])cc4[N+](=O)[O-])cc3)n2)cc1 | 80.2 |
| O=C(N/N=C/c1ccccc1)c1c(-c2cccnc2)cnc2ccccc12 | > 100 |
| Cc1ccc(SCC(CF)OC(C)n2cnc3c(=O)[nH]c(N)nc32)cc1 (configuration not stated) | > 100 |
| COC(CNC(=O)C(C)NC(=O)CCc1ccccc1)OC (configuration not stated) | > 100 |
| COc1ccc(C(=C(Cl)c2ccccc2)c2ccc(OC)cc2)cc1 | > 100 |

What follows are compounds tested on NCI-H226 lung (assay: DTP human tumour cell line panel, 48 h).

| Structure (SMILES) | TGI [µM] |
| --- | --- |
| CC(C)(C)c1cc(Br)c(O)c(CN(Cc2cc(C(C)(C)C)cc(Br)c2O)C2CCCCC2)c1 | 29.1 |
| O=Cc1ccc(OCc2cccc(COc3ccc(/C=N\Nc4ccc([N+](=O)[O-])cc4[N+](=O)[O-])cc3)n2)cc1 | > 100 |
| O=C(N/N=C/c1ccccc1)c1c(-c2cccnc2)cnc2ccccc12 | > 100 |
| Cc1ccc(SCC(CF)OC(C)n2cnc3c(=O)[nH]c(N)nc32)cc1 (configuration not stated) | > 100 |
| COC(CNC(=O)C(C)NC(=O)CCc1ccccc1)OC (configuration not stated) | > 100 |
| COc1ccc(C(=C(Cl)c2ccccc2)c2ccc(OC)cc2)cc1 | > 100 |
